Measured values taken from patent US10030020B2, “Spirocycle compounds and methods of making and using same” (Abide Therapeutics, Inc., priority 2016, dated 2018).

What was measured:
ABHD6 [1] = molecular target: T1, ABHD6 (Mus musculus (Mouse), UniProt Q8R2Y0); assay: Mouse brain proteomes from inhibitor treated mice (oral gavage, sacrificed 4 h after administration, ABPP analysis), ABHD6; format: in vivo, mouse (C57Bl/6J); settings: 5 mg/kg oral gavage
Procedure: (§1) Preparation of Mouse Brain Proteomes from Inhibitor Treated Mice.
(§2) Inhibitors were administered to wild-type C57Bl/6J by oral gavage in a vehicle, e.g. PEG400/Ethanol/PBS (7/2/1). Each animal was sacrificed 4 h following administration and brain proteomes were prepared and analyzed according to previously established methods (See Niphakis, M. J., et al. (2011) ACS Chem. Neurosci. and Long, J. Z., et al. Nat. Chem. Biol. 5:37-44). Data from this assay is shown in Table 2 (% inhibition at 5 mg/kg).

MAGL [2] = molecular target: T2, MAGL (Mus musculus (Mouse), UniProt O35678); assay: In vitro competitive activity-based protein profiling (mouse brain membrane fraction or cell lysates), MAGL band; format: biochemical; settings: mouse proteome; for inhibition at 1 µM: read-out: MAGL % Inh 1 μM (mouse); for IC50: competitive ABPP
Procedure: In Vitro Competitive Activity-Based Protein Profiling.
Proteomes (mouse brain membrane fraction or cell lysates) (50 μL, 1.0 mg/mL total protein concentration) were preincubated with varying concentrations of inhibitors at 37° C. After 30 min, FP—Rh (1.0 μL, 50 μM in DMSO) was added and the mixture was incubated for another 30 min at 37° C. Reactions were quenched with SDS loading buffer (50 μL-4×) and run on SDS-PAGE.

ABHD6 [3] = molecular target: T1, ABHD6; assay: In vitro competitive activity-based protein profiling (mouse brain membrane fraction or cell lysates), ABHD6 band; format: biochemical; settings: mouse proteome; for inhibition at 1 µM: read-out: ABHD6 % Inh 1 μM (mouse); for IC50: competitive ABPP
Procedure, shortened: (§3)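 Competitive ABPP: proteome 1.0 mg/mL protein + inhibitor, 30 min, 37° C; FP-Rh probe (stock 50 μM in DMSO) added, 30 min, 37° C; SDS quench, SDS-PAGE, fluorescent band intensity read.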

FAAH [4] = molecular target: T3, FAAH (Mus musculus (Mouse), UniProt O08914); assay: In vitro competitive activity-based protein profiling (mouse brain membrane fraction or cell lysates), FAAH band; format: biochemical; settings: mouse proteome; for inhibition at 1 µM: read-out: FAAH % Inh 1 μM (mouse); for IC50: competitive ABPP
Procedure, shortened: as §3

FAAH [5] = molecular target: T3, FAAH; assay: Mouse brain proteomes from inhibitor treated mice (oral gavage, sacrificed 4 h after administration, ABPP analysis), FAAH; format: in vivo, mouse (C57Bl/6J); settings: 5 mg/kg oral gavage
Procedure: as §1, §2

MAGL [6] = molecular target: T2, MAGL; assay: Mouse brain proteomes from inhibitor treated mice (oral gavage, sacrificed 4 h after administration, ABPP analysis); format: in vivo, mouse (C57Bl/6J); settings: 5 mg/kg oral gavage
Procedure: as §1, §2

T3 sequence (O08914 whole entry): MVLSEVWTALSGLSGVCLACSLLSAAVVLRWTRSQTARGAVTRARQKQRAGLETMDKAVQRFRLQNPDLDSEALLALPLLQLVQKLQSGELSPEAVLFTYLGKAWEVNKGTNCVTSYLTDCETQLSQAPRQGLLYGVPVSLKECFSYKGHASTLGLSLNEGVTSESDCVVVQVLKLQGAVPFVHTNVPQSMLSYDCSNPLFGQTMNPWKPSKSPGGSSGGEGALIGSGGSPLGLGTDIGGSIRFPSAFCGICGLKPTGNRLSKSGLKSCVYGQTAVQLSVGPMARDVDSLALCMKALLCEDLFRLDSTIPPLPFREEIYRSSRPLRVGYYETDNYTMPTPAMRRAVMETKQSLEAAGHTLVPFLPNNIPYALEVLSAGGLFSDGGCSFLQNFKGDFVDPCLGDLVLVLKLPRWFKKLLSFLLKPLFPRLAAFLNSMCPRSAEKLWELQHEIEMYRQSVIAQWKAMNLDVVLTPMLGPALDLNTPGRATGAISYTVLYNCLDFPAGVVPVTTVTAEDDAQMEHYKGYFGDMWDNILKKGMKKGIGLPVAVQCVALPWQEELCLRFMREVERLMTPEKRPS
T1 sequence (Q8R2Y0 whole entry): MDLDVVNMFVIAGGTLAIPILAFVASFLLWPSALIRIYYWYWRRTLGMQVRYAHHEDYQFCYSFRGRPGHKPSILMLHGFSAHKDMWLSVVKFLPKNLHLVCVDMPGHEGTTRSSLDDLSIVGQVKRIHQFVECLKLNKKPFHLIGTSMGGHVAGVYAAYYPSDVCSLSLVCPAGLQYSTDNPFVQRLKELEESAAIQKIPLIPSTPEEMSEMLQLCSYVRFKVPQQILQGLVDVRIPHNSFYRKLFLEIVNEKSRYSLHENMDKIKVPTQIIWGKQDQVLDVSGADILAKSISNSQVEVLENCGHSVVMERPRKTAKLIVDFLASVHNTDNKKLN
T2 sequence (O35678 whole entry): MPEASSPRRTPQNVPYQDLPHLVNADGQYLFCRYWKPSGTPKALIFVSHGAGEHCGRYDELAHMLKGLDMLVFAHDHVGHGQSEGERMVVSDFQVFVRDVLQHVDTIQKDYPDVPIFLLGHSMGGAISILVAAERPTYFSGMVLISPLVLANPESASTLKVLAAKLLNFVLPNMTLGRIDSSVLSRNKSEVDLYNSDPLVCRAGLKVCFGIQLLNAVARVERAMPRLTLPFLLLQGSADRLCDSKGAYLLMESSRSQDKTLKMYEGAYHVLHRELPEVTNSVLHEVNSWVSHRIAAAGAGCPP

| SMILES | ABHD6 % Inh 5 mg/kg (mouse) (ABHD6 [1]) | inhibition at 1 µM (MAGL [2]) [%] | IC50 (MAGL [2]) [nM] | inhibition at 1 µM (ABHD6 [3]) [%] | IC50 (ABHD6 [3]) [nM] | inhibition at 1 µM (FAAH [4]) [%] | IC50 (FAAH [4]) [nM] | FAAH % Inh 5 mg/kg (mouse) (FAAH [5]) | MAGL % Inh 5 mg/kg (mouse) (MAGL [6]) |
| --- | --- | --- | --- | --- | --- | --- | --- | --- | --- |
| O=C(OC(C(F)(F)F)C(F)(F)F)N1CCC2(CCCN2Cc2ccc(C(F)(F)F)cc2N2CC3CCC(C2)O3)CC1 [Example 73, 1,1,1,3,3,3-Hexafluoropropan-2-yl 1-(2-(8-oxa-3-azabicyclo[3.2.1]octan-3-yl)-4-(trifluoromethyl)benzyl)-1,8-diazaspiro[4.5]decane-8-carboxylate] | # (# is <25%) | > 75 | < 100 | < 25 | > 1000 | < 25 | > 1000 | # (# is <25%) | ## (## is equal to or greater than 25% but less than 75%) |
| O=C(OC(C(F)(F)F)C(F)(F)F)N1CCC2(CCCN2Cc2ccc(N3CCCC3)c(C(F)(F)F)c2)CC1 [Example 130, 1,1,1,3,3,3-Hexafluoropropan-2-yl 1-(4-(pyrrolidin-1-yl)-3-(trifluoromethyl)benzyl)-1,8-diazaspiro[4.5]decane-8-carboxylate] | # (# is <25%) | > 75 | < 100 | 25 to 75 | > 1000 | < 25 | > 1000 | # (# is <25%) | ### (### is ≥75%) |
| CC(=O)NC1CCN(c2cc(C(F)(F)F)ccc2CN2CCCC23CCN(C(=O)OC(C(F)(F)F)C(F)(F)F)CC3)CC1 [Example 93, 1,1,1,3,3,3-Hexafluoropropan-2-yl 1-(2-(4-acetamidopiperidin-1-yl)-4-(trifluoromethyl)benzyl)-1,8-diazaspiro[4.5]decane-8-carboxylate] | # (# is <25%) | > 75 | < 100 | < 25 | > 1000 | < 25 | > 1000 | # (# is <25%) | ### (### is ≥75%) |
| O=C(OC(C(F)(F)F)C(F)(F)F)N1CCC2(CCCN2Cc2ccc(Cl)cc2N2CCCCC2)CC1 [Example 74, 1,1,1,3,3,3-Hexafluoropropan-2-yl 1-(4-chloro-2-(piperidin-1-yl)benzyl)-1,8-diazaspiro[4.5]decane-8-carboxylate] | # (# is <25%) | > 75 | < 100 | 25 to 75 | > 1000 | < 25 | > 1000 | # (# is <25%) | ## (## is equal to or greater than 25% but less than 75%) |

The next lines start with results.

| ABHD6 % Inh 5 mg/kg (mouse) (ABHD6 [1]) | inhibition at 1 µM (MAGL [2]) [%] | IC50 (MAGL [2]) [nM] | inhibition at 1 µM (ABHD6 [3]) [%] | IC50 (ABHD6 [3]) [nM] | inhibition at 1 µM (FAAH [4]) [%] | IC50 (FAAH [4]) [nM] | FAAH % Inh 5 mg/kg (mouse) (FAAH [5]) | SMILES | MAGL % Inh 5 mg/kg (mouse) (MAGL [6]) |
| --- | --- | --- | --- | --- | --- | --- | --- | --- | --- |
| # (# is <25%) | > 75 | < 100 | < 25 | > 1000 | < 25 | > 1000 | # (# is <25%) | O=C(OC(C(F)(F)F)C(F)(F)F)N1CCC2(CCCN2Cc2ccc(C(F)(F)F)cc2N2CCCCC2)CC1 [Example 78, 1,1,1,3,3,3-Hexafluoropropan-2-yl 1-(2-(piperidin-1-yl)-4-(trifluoromethyl)benzyl)-1,8-diazaspiro[4.5]decane-8-carboxylate] | ## (## is equal to or greater than 25% but less than 75%) |
| # (# is <25%) | > 75 | < 100 | < 25 | > 1000 | < 25 | > 1000 | # (# is <25%) | O=C(OC(C(F)(F)F)C(F)(F)F)N1CCC2(CCCN2Cc2ccc(Cl)cc2N2CCCC2)CC1 [Example 76, 1,1,1,3,3,3-Hexafluoropropan-2-yl 1-(4-chloro-2-(pyrrolidin-1-yl)benzyl)-1,8-diazaspiro[4.5]decane-8-carboxylate] | ### (### is ≥75%) |
